According to patent US10399932B2, “Inhibitors of indoleamine-2,3-dioxygenase for the treatment of cancer” (BRISTOL-MYERS SQUIBB COMPANY, priority 2015, dated 2019):

What follows are compounds tested against human IDO1 (Homo sapiens, UniProt P14902) (assay: Assessment of human IDO-1 inhibitory activity in HEK cells (human IDO1/HEK293 cells, Ehrlich reagent, absorbance at 490 nm)). Conditions: In Vitro Potency in the HEK Human IDO-1 Cellular Assay.
Assay type: cell-based
Design: expressed in transfected cells
Procedure: Exemplary compounds were tested for inhibition of IDO activity.
HEK293 cells were transfected with a pCDNA-based mammalian expression vector harboring human IDO1 cDNA (NM 002164.2) by electroporation. They were cultured in medium (DMEM with 10% FBS) containing 1 mg/ml G418 for two weeks. Clones of HEK293 cells that stably expressed human IDO1 protein were selected and expanded for IDO inhibition assay.
The human IDO1/HEK293 cells were seeded at 10,000 cells per 50 μL per well with RPMI/phenol red free media contains 10% FBS in a 384-well black wall clear bottom tissue culture plate (Matrix Technologies LLC) 100 nL of certain concentration of compound was then added to each well using ECHO liquid handling systems. The cells were incubated for 20 hours in 37° C. incubator with 5% CO2.
The compound treatments were stopped by adding trichloroacetic acid (Sigma-Aldrich) to a final concentration at 0.2%. The cell plate was further incubated at 50° C. for 30 minute. The equal volume supernatant (20 μL) and 0.2% (w/v) Ehrlich reagent (4-dimethylaminobenzaldehyde, Sigma-Aldrich) in glacial acetic acid were mixed in a new clear bottom 384-well plate. This plate was then incubated at room temperature for 30 minute. The absorbance at 490 nm was measured on Envision plate reader.
Compound IC50 values were calculated using the counts of 500 nM of a reference standard treatment as one hundred percent inhibition, and counts of no compound but DMSO treatment as zero percent inhibition.

human IDO1, sequence (P14902 whole entry): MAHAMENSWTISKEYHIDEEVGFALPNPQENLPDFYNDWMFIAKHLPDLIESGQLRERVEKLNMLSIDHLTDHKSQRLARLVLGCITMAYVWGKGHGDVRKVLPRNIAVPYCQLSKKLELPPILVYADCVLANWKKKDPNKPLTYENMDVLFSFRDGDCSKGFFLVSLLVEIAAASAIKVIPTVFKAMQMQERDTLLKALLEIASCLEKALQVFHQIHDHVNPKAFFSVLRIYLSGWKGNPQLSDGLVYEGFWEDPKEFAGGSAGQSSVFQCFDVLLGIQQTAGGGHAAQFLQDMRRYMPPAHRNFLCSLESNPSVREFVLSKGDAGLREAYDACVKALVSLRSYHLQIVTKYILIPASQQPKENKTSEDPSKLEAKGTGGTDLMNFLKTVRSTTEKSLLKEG

| IC50 [nM] | Structure (SMILES) |
| --- | --- |
| < 50 | COCC(CC(=O)O)c1cc(F)c(N(CC(C)C)C2CCCCC2)c(NC(=O)Cc2ccc(Cl)cc2F)c1 (single isomer, unassigned) [Example 1175, 3-(3-(2-(4-chloro-2-fluorophenyl)acetamido)-4-(cyclohexyl(isobutyl)amino)-5-fluorophenyl)-4-methoxybutanoic acid] |
| > 50 | CCC(CC(=O)O)c1ccc(N2CCC[C@H]2C(C)(C)O)c(Nc2cnc(OCC3CC3)nc2)c1 (single isomer, unassigned) [Example 838] |
| < 5 | COCC(CC(=O)O)c1ccc(N(CC(C)C)C2CCCCC2)c(NC(=O)Nc2ccc(OC)cc2F)c1 (single isomer, unassigned) [Example 1239, 3-(4-(Cyclohexyl(isobutyl)amino)-3-(3-(2-fluoro-4-methoxyphenyl)ureido)phenyl)-4-methoxybutanoic acid] |
| < 5 | COCC(CC(=O)O)c1cc(F)c(N(CC(C)C)C2CCCCC2)c(NC(=O)Nc2ccc(Cl)cc2F)c1 (single isomer, unassigned) [Example 1164, 3-(3-(3-(4-chloro-2-fluorophenyl)ureido)-4-(cyclohexyl(isobutyl)amino)-5-fluorophenyl)-4-methoxybutanoic acid] |
| > 50 | CCC(CC(=O)O)c1ccc(N2CCC[C@@H]2COC)c(NC(=O)Cc2ccc(C)cc2)c1 (single isomer, unassigned) [Example 1145] |
| > 50 | CCC(CC(=O)O)c1ccc(N2C[C@@H](C)O[C@@H](C)C2)c(Nc2ccc3nc(C)sc3c2)c1 (single isomer, unassigned) [Example 757] |
| > 50 | CC(CC(=O)O)c1ccc(N2C[C@@H](C)O[C@@H](C)C2)c(Nc2ccc(F)cc2)c1 (single isomer, unassigned) [Example 744] |
| < 50 | CCC(CC(=O)O)c1ccc(N2CCOC[C@H]2C(C)C)c(NC(=O)Nc2ccc(Cl)cc2F)c1 (single isomer, unassigned) [Example 908] |
| > 50 | CCC(CC(=O)O)c1ccc(N2CCC[C@H]2C(C)(C)O)c(Nc2ccc(OCC3CC3)cc2)c1 (single isomer, unassigned) [Example 834] |
| > 50 | COCC(CC(=O)OC)c1ccc(N(CC(C)C)C2CCC(OC)CC2)c(NC(=O)Nc2ccc(Cl)cc2F)c1 (racemic) [Example 1148] |
| > 50 | CCOc1ncc(Nc2cc(C(C)CC(=O)O)ccc2N2C[C@@H](C)O[C@@H](C)C2)cn1 (single isomer, unassigned) [Example 748] |
| > 50 | CCOc1ccc(NC(=O)Nc2cc(C(COC)CC(=O)O)ccc2N(CC(C)C)C2CCOCC2)cc1 (single isomer, unassigned) [Example 1219, 3-(3-(3-(4-Ethoxyphenyl)ureido)-4-(isobutyl(tetrahydro-2H-pyran-4-yl)amino)phenyl)-4-methoxybutanoic acid] |

The next lines start with the compound.

| Structure (SMILES) | IC50 [nM] |
| --- | --- |
| CCOc1ccc(NC(=O)Nc2cc([C@@H](CC)CC(=O)O)ccc2N(CC)C2CCOCC2)cc1 (single isomer, unassigned) [Example 491] | < 50 |
| CCC(CC(=O)O)c1ccc(N(CC2CC2)C2CCOCC2)c(NC(=O)Nc2cc(C)on2)c1 (single isomer, unassigned) [Example 700, 3-(4-((Cyclopropylmethyl)(tetrahydro-2H-pyran-4-yl)amino)-3-(3-(5-methylisoxazol-3-yl)ureido)phenyl)pentanoic acid] | > 50 |
| CCC(CC(=O)O)c1ccc(N(CC2CC2)C2CCOCC2)c(NC(=O)Nc2ccc(Cl)cc2F)c1 (single isomer, unassigned) [Example 699, 3-(3-(3-(4-Chloro-2-fluorophenyl)ureido)-4-((cyclopropylmethyl)(tetrahydro-2H-pyran-4-yl)amino)phenyl)pentanoic acid] | < 5 |
| CCC(CC(=O)O)c1cc(F)c(N(CC(C)C)CC(C)C)c(Nc2cnc(OC)nc2)c1 (single isomer, unassigned) [Example 120, 3-(4-(diisobutylamino)-3-fluoro-5-((2-methoxypyrimidin-5-yl)amino)phenyl) pentanoic acid] | < 5 |
| CCN(c1ccc(C(CC(=O)O)c2ccccc2)cc1Nc1ccc(Cl)cc1F)C1CCOCC1 (single isomer, unassigned) [Example 582, 3-(3-((4-chloro-2-fluorophenyl)amino)-4-(ethyl(tetrahydro-2H-pyran-4-yl)amino)phenyl)-3-phenylpropanoic acid] | < 50 |
| CCC(CC(=O)O)c1ccc(N(CC(C)C)C(C)C)c(Nc2ccc(Cl)cc2)c1 (single isomer, unassigned) [Example 728, 3-(3-((4-Chlorophenyl)amino)-4-(isobutyl(isopropyl)amino)phenyl)pentanoic acid] | < 5 |
| CCc1cnc(Nc2cc([C@@H](CC)CC(=O)O)ccc2N(CC)C2CCCCC2)nc1 (single isomer, unassigned) [Example 280] | > 50 |
| CCC(CC(=O)O)c1ccc(N(CC(C)C)C2CCCCC2)c(Nc2cnc(OC(C)C)nc2)c1 (single isomer, unassigned) [Example 655, 3-(4-(cyclohexyl(isobutyl)amino)-3-((2-isopropoxypyrimidin-5-yl)amino)phenyl)pentanoic acid] | < 5 |
| CCC(CC(=O)O)c1ccc(N(CC(C)C)C2CCCCC2)c(Nc2ccc(Cl)c(OCC(F)(F)F)c2)c1 (single isomer, unassigned) [Example 651, 3-(3-((4-chloro-3-(2,2,2-trifluoroethoxy)phenyl)amino)-4-(cyclohexyl(isobutyl)amino)phenyl)pentanoic acid] | < 50 |
| CCC(CC(=O)O)c1cc(F)c(N(CC(C)C)CC(C)C)c(Nc2ccc3c(c2)OC(F)(F)O3)c1 (single isomer, unassigned) [Example 117, 3-(3-((2,2-difluorobenzo [d][1,3]dioxol-5-yl)amino)-4-(diisobutylamino)-5-fluorophenyl)pentanoic acid] | < 5 |
| CC(CC(=O)O)c1ccc(N(CC(C)(C)O)C2CCOCC2)c(Nc2ccc(Cl)cc2)c1 (single isomer, unassigned) [Example 193, 3-(3-((4-chlorophenyl)amino)-4-((2-hydroxy-2-methylpropyl)(tetrahydro-2H-pyran-4-yl)amino)phenyl)butanoic acid] | < 5 |
| CCN(c1ccc(C(CC(=O)O)c2ccccc2)cc1NC(=O)Nc1ccc(OC)cc1F)C1CCOCC1 (single isomer, unassigned) [Example 596, 3-(4-(ethyl(tetrahydro-2H-pyran-4-yl)amino)-3-(3-(2-fluoro-4-methoxyphenyl)ureido)phenyl)-3-phenylpropanoic acid] | > 50 |
| COCC(CC(=O)O)c1ccc(N(CC(C)C)C2CCCCC2)c(NC(=O)Nc2ccccc2F)c1 (single isomer, unassigned) [1125 E1] | < 5 |
| Cc1ccc(NC(=O)Nc2cc(C(CC(=O)O)C3CC3)ccc2N(CC(C)C)C2CCOCC2)cc1 (single isomer, unassigned) [1202 E1] | < 5 |
| CCC(CC(=O)O)c1cc(F)c(N(CC(C)C)CC(C)C)c(Nc2ccc(OCC3CC3)cc2)c1 (single isomer, unassigned) [Example 122, 3-(3-((4-(cyclopropylmethoxy)phenyl)amino)-4-(diisobutylamino)-5-fluorophenyl)pentanoic acid] | < 50 |
